# Measured values: ChEMBL document CHEMBL5143733, “Discovery of (E)-3-(3-((2-Cyano-4'-dimethylaminobiphenyl-4-ylmethyl)cyclohexanecarbonylamino)-5-fluorophenyl)acrylic Acid Methyl Ester, an Intestine-Specific, FXR Partial Agonist for the Treatment of Nonalcoholic Steatohepatitis” (J Med Chem, 2022)
# pEC50: −log10 of the molar value. Activity calls are given as the source filed them. The rule behind the calls is not given here.
# Assays:
# [1] = molecular target: T1, Bile acid receptor (Homo sapiens, UniProt Q96RI1)
# T1 sequence (Q96RI1 whole entry): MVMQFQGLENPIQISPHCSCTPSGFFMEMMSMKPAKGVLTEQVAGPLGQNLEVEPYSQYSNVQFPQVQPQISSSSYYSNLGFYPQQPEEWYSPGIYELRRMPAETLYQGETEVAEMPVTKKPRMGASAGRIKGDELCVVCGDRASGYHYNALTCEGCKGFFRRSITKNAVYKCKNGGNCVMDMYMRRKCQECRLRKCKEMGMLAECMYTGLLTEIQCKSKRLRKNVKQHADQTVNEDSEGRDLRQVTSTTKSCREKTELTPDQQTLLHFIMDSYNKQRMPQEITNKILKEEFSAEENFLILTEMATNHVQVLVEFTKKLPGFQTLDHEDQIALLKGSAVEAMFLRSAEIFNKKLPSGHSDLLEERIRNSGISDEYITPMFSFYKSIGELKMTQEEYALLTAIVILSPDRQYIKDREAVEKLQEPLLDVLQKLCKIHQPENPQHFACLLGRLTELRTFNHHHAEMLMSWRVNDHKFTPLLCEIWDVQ
# Description: Agonist activity at human FXR transfected in CHO-K1 cells coexpressed with beta-galactosidase incubated for 3 to 16 hrs by PathHunter chemiluminescence based assay
# [2] = molecular target: Glucocorticoid receptor (Homo sapiens) (UniProt P04150); experiment: Agonist activity at human GR expressed in CHO-K1 cells assessed as maximum relative efficacy at 100 uM by PathHunter assay relative to dexamethasone; format: cell-based
# [3] = molecular target: Thyroid hormone receptor alpha (Homo sapiens) (UniProt P10827); experiment: Agonist activity at human THR-alpha expressed in CHO-K1 cells assessed as maximum relative efficacy at 100 uM by PathHunter assay relative to control; format: cell-based
# Sequence of Thyroid hormone receptor alpha (Homo sapiens) (P10827 whole entry): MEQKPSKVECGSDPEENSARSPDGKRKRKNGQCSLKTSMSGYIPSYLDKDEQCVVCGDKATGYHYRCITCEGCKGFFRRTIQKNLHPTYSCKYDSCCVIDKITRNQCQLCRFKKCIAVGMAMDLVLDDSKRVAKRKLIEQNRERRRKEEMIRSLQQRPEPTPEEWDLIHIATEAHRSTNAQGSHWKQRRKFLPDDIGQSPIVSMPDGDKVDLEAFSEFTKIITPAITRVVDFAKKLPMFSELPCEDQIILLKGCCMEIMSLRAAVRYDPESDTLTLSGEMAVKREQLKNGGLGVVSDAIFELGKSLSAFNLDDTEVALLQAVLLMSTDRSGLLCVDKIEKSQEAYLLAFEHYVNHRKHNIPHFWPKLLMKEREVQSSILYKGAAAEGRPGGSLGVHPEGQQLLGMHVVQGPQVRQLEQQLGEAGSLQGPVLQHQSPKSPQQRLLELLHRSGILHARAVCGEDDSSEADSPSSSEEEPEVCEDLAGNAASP
# [4] = molecular target: Peroxisome proliferator-activated receptor alpha (Homo sapiens) (UniProt Q07869); experiment: Agonist activity at human PPAR-alpha expressed in CHO-K1 cells assessed as maximum relative efficacy at 100 uM by PathHunter assay relative to GW7647; format: cell-based
# [5] = molecular target: Androgen receptor (Homo sapiens) (UniProt P10275); experiment: Agonist activity at human AR expressed in CHO-K1 cells assessed as maximum relative efficacy at 100 uM by PathHunter assay relative to 6alpha-fluorotestosterone; format: cell-based
# [6] = molecular target: Retinoic acid receptor RXR-beta (Homo sapiens) (UniProt P28702); experiment: Agonist activity at human RXR-beta expressed in U2OS cells assessed as maximum relative efficacy at 100 uM by PathHunter assay relative to 9-cis-retinoic acid; format: cell-based
# Sequence of Retinoic acid receptor RXR-beta (Homo sapiens) (P28702 whole entry): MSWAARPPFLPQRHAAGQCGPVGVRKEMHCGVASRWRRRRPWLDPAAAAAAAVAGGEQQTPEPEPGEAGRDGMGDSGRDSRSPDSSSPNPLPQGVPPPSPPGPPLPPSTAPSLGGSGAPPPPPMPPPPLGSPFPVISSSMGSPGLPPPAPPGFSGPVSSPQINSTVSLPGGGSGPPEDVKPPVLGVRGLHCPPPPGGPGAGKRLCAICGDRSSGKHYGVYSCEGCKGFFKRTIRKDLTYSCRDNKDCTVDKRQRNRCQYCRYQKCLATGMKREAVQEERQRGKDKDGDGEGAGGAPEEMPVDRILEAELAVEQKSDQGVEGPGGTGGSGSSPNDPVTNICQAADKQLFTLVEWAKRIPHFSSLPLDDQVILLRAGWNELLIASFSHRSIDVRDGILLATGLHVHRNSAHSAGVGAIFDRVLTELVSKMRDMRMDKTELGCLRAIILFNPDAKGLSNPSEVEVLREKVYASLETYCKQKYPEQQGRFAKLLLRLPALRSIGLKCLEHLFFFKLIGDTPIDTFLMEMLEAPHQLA
# [7] = molecular target: Progesterone receptor (Homo sapiens) (UniProt P06401); experiment: Agonist activity at human PR-beta expressed in U2OS cells assessed as maximum relative efficacy at 100 uM by PathHunter assay relative to norgestrel; format: cell-based
# Sequence of Progesterone receptor (Homo sapiens) (P06401 whole entry): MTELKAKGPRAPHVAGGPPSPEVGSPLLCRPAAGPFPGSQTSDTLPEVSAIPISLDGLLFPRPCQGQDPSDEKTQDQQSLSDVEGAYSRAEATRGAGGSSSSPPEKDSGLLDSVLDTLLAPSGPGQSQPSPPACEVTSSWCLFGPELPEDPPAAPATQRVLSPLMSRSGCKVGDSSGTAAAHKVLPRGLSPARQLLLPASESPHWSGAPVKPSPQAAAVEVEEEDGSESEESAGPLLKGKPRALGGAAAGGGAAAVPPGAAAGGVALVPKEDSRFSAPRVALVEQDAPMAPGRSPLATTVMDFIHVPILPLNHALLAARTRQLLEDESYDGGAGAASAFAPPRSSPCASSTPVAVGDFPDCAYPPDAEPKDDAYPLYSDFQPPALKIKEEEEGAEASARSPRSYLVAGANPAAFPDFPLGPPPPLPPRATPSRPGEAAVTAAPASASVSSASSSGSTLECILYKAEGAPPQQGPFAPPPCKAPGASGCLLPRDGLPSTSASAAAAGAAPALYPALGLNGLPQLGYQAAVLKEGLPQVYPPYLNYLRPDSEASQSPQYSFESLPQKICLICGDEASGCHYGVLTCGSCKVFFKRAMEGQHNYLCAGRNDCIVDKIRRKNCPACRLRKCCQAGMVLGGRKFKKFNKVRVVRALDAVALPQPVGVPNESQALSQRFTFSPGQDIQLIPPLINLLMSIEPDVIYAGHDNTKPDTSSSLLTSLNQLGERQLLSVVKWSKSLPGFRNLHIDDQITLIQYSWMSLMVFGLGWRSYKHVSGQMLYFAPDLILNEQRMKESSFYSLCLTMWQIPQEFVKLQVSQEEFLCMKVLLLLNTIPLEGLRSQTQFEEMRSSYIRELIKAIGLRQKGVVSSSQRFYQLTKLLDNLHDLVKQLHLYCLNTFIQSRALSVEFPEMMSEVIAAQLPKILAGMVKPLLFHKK
# [8] = molecular target: Progesterone receptor (Homo sapiens) (UniProt P06401); experiment: Agonist activity at human PR-alpha expressed in U2OS cells assessed as maximum relative efficacy at 100 uM by PathHunter assay relative to norgestrel; format: cell-based
# [9] = molecular target: Peroxisome proliferator-activated receptor delta (Homo sapiens) (UniProt Q03181); experiment: Agonist activity at human PPAR-delta expressed in CHO-K1 cells assessed as maximum relative efficacy at 100 uM by PathHunter assay relative to L-165,041; format: cell-based
# [10] = molecular target: Estrogen receptor (Homo sapiens) (UniProt P03372); experiment: Agonist activity at human ERalpha expressed in CHO-K1 cells assessed as maximum relative efficacy at 100 uM by PathHunter assay relative to 17-beta-estradiol; format: cell-based
# [11] = molecular target: Retinoic acid receptor alpha (Homo sapiens) (UniProt P10276); experiment: Agonist activity at human RAR-alpha expressed in CHO-K1 cells assessed as maximum relative efficacy at 100 uM by PathHunter assay relative to 9-cis-retinoic acid; format: cell-based
# Sequence of Retinoic acid receptor alpha (Homo sapiens) (P10276 whole entry): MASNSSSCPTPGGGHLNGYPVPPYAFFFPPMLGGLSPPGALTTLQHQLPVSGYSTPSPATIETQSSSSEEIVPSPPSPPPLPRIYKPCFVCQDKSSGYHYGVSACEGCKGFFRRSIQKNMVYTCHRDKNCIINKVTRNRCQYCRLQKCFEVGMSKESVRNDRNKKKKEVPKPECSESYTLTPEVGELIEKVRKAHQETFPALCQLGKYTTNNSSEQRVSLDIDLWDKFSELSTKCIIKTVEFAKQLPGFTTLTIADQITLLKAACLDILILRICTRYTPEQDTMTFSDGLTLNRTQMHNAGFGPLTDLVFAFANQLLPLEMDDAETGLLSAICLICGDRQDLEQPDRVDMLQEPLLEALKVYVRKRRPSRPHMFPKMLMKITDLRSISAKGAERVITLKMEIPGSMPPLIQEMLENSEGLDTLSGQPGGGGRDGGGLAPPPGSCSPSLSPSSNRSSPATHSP
# [12] = molecular target: Retinoic acid receptor RXR-alpha (Homo sapiens) (UniProt P19793); experiment: Agonist activity at human RXR-alpha expressed in U2OS cells assessed as maximum relative efficacy at 100 uM by PathHunter assay relative to 9-cis-retinoic acid; format: cell-based
# Sequence of Retinoic acid receptor RXR-alpha (Homo sapiens) (P19793 whole entry): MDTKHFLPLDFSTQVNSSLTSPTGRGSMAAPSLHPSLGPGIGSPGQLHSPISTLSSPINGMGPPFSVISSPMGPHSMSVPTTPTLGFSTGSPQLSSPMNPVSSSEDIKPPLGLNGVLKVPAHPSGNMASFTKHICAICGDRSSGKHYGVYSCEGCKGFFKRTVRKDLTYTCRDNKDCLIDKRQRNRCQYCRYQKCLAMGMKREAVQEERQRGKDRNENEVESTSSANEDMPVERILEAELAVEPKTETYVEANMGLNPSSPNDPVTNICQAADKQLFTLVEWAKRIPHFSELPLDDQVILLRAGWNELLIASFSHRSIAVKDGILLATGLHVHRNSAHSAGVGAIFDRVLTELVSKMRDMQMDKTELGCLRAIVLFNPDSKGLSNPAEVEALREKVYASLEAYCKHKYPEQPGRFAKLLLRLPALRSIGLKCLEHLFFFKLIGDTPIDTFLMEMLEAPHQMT
# [13] = molecular target: Mineralocorticoid receptor (Homo sapiens) (UniProt P08235); experiment: Agonist activity at human MR expressed in CHO-K1 cells assessed as maximum relative efficacy at 100 uM by PathHunter assay relative to aldosterone; format: cell-based
# Sequence of Mineralocorticoid receptor (Homo sapiens) (P08235 whole entry): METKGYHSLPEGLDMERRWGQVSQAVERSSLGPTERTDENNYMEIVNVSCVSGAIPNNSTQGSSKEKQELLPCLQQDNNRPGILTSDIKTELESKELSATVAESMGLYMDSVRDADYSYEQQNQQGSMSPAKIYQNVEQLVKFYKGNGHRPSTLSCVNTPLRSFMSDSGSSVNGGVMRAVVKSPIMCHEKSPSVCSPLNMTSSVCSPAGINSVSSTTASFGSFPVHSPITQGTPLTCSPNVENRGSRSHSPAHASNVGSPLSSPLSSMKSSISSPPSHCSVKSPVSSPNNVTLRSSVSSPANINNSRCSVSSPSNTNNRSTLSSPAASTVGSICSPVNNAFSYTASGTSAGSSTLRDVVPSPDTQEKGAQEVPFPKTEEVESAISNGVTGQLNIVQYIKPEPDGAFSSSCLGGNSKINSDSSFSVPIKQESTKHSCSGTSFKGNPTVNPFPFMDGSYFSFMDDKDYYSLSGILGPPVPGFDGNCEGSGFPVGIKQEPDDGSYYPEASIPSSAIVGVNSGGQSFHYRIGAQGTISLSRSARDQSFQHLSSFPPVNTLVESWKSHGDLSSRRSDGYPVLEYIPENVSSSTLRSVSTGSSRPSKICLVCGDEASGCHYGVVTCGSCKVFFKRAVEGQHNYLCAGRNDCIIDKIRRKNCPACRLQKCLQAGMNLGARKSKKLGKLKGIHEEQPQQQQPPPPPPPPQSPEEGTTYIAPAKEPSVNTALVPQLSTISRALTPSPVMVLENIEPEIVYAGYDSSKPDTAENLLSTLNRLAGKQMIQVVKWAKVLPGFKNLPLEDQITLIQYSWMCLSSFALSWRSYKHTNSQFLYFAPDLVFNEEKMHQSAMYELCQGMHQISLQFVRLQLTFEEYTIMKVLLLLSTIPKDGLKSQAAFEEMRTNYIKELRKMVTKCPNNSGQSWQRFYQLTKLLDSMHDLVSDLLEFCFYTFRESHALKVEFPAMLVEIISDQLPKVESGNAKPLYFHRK
# [14] = molecular target: Thyroid hormone receptor beta (Homo sapiens) (UniProt P10828); experiment: Agonist activity at human THR-beta expressed in CHO-K1 cells assessed as maximum relative efficacy at 100 uM by PathHunter assay relative to triiodothyronine ine; format: cell-based
# Sequence of Thyroid hormone receptor beta (Homo sapiens) (P10828 whole entry): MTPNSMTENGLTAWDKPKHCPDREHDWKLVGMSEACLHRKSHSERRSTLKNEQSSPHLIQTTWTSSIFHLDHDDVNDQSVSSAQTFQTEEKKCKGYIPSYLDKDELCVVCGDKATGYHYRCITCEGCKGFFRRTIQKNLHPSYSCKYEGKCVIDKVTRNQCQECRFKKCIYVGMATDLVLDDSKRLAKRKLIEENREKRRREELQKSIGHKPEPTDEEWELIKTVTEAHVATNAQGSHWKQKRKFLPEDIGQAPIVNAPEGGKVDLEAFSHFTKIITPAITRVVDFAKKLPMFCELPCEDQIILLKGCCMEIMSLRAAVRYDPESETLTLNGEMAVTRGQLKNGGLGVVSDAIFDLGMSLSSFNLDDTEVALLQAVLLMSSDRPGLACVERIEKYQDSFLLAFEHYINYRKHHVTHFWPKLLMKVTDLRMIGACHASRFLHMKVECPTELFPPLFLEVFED
# [15] = molecular target: Oxysterols receptor LXR-alpha (Homo sapiens) (UniProt Q13133); experiment: Agonist activity at human LXR-alpha expressed in CHO-K1 cells assessed as maximum relative efficacy at 100 uM by PathHunter assay relative to TO901317; format: cell-based
# Sequence of Oxysterols receptor LXR-alpha (Homo sapiens) (Q13133 whole entry): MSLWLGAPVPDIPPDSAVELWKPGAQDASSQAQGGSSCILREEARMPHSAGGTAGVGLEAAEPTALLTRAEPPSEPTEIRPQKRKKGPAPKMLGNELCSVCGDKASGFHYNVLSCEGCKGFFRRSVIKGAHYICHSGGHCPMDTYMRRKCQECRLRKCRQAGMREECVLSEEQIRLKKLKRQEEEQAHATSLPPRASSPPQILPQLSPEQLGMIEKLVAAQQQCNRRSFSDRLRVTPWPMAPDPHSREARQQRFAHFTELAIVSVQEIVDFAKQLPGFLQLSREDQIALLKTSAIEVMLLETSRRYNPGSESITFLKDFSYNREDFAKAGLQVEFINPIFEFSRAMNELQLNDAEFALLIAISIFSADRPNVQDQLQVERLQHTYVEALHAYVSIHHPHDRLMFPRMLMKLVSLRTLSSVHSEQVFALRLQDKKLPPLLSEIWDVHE
# [16] = molecular target: Retinoic acid receptor beta (Homo sapiens) (UniProt P10826); experiment: Agonist activity at human RAR-beta expressed in CHO-K1 cells assessed as maximum relative efficacy at 100 uM by PathHunter assay relative to 9-cis-retinoic acid; format: cell-based
# [17] = molecular target: Peroxisome proliferator-activated receptor gamma (Homo sapiens) (UniProt P37231); experiment: Agonist activity at human PPAR-gamma expressed in CHO-K1 cells assessed as maximum relative efficacy at 100 uM by PathHunter assay relative to troglitazone; format: cell-based
# [18] = molecular target: Oxysterols receptor LXR-beta (Homo sapiens) (UniProt P55055); experiment: Agonist activity at human LXR-beta expressed in CHO-K1 cells assessed as maximum relative efficacy at 100 uM by PathHunter assay relative to TO901317; format: cell-based
# [19] = molecular target: T2, Bile acid receptor (Homo sapiens) (UniProt Q96RI1); experiment: Antagonist activity at human FXR expressed in CHO-K1 FXR cells coexpressed with beta-galactosidase at 10 uM preincubated for 60 mins followed by GW4064 addition and measured after 3 to 16 hrs by PathHunter chemiluminescence based assay relative to control; format: cell-based; set-up: scale not given: the % may be the effect or the level left; conditions: time 4-17 hrs
# T2 sequence (whole entry): T1 sequence (Q96RI1 whole entry)
# [20] = AUClast in Sprague-Dawley rat at 5 mg/kg, iv measured up to 24 hrs by HPLC analysis; format: ADME, organism-based; set-up: time < 24 hrs, dose 5 mg/kg, route iv; conditions: Sprague-Dawley, in vivo
# [21] = molecular target: T2, Bile acid receptor (Homo sapiens); experiment: Antagonist activity at human FXR expressed in CHO-K1 FXR cells coexpressed with beta-galactosidase at 1.1 uM preincubated for 60 mins followed by GW4064 addition and measured after 3 to 16 hrs by PathHunter chemiluminescence based assay relative to control; format: cell-based; set-up: scale not given: the % may be the effect or the level left; conditions: time 4-17 hrs
# [22] = molecular target: T2, Bile acid receptor (Homo sapiens); experiment: Agonist activity at human FXR transfected in CHO-K1 cells coexpressed with beta-galactosidase at 10 uM incubated for 3 to 16 hrs by PathHunter chemiluminescence based assay relative to control; format: cell-based; conditions: time 3-16 hrs
# [23] = Stability in Sprague-Dawley rat plasma at 80 mg/kg, po measured after 3 hrs by RP-HPLC analysis; format: ADME, organism-based; conditions: in vivo
# [24] = Half life in Sprague-Dawley rat at 5 mg/kg, iv measured up to 24 hrs by HPLC analysis; format: ADME, organism-based; conditions: in vivo
# [25] = molecular target: T2, Bile acid receptor (Homo sapiens); experiment: Antagonist activity at human FXR expressed in CHO-K1 FXR cells coexpressed with beta-galactosidase at 3.3 uM preincubated for 60 mins followed by GW4064 addition and measured after 3 to 16 hrs by PathHunter chemiluminescence based assay relative to control; format: cell-based; set-up: scale not given: the % may be the effect or the level left; conditions: time 4-17 hrs
# [26] = Clearance in Sprague-Dawley rat at 5 mg/kg, iv measured up to 24 hrs by HPLC analysis; format: ADME, organism-based; conditions: in vivo
# [27] = Volume of distribution at steady state in Sprague-Dawley rat at 5 mg/kg, iv measured up to 24 hrs by HPLC analysis; format: ADME, organism-based; conditions: in vivo, read-out: Vdss
# [28] = Toxicity in CDAHFD-induced nonalcoholic steatohepatitis C57BL/6J mouse model assessed as change in amount of food intake at 80 mg/kg, po administered daily for 4 weeks; format: organism-based; conditions: in vivo, 672 h
# [29] = molecular target: T3, Bile acid receptor (Mus musculus) (UniProt Q60641); experiment: In vivo activation of FXR in CDAHFD-induced nonalcoholic steatohepatitis C57BL/6J mouse model assessed as induction of SHP gene expression at 80 mg/kg, po administered daily for 4 weeks; format: functional, organism-based
# T3 sequence (whole entry): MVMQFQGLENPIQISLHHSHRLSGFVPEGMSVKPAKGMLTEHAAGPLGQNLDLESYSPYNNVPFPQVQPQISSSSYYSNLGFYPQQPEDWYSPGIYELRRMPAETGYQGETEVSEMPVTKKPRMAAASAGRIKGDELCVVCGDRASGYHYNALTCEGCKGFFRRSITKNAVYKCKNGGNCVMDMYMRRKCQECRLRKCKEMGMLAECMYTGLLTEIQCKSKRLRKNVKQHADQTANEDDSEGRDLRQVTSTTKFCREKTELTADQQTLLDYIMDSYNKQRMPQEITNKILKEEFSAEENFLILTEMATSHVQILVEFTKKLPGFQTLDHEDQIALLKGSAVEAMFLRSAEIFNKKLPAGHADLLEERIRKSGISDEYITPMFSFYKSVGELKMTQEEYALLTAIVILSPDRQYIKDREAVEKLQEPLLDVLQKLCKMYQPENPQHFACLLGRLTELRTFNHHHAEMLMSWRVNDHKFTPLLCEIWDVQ
# [30] = Toxicity in CDAHFD-induced nonalcoholic steatohepatitis C57BL/6J mouse model assessed as increase in liver wet weight at 80 mg/kg, po administered daily for 4 weeks […]; format: organism-based; conditions: in vivo, 672 h
# [31] = molecular target: T3, Bile acid receptor (Mus musculus); experiment: In vivo activation of FXR in CDAHFD-induced nonalcoholic steatohepatitis C57BL/6J mouse model assessed as reduction in liver fibrosis at 80 mg/kg, po administered daily for 4 weeks by picrosirius red staining method; format: functional, organism-based
# [32] = molecular target: T3, Bile acid receptor (Mus musculus); experiment: In vivo activation of FXR in CDAHFD-induced nonalcoholic steatohepatitis C57BL/6J mouse model assessed as induction of IBABP gene expression at 80 mg/kg, po administered daily for 4 weeks; format: functional, organism-based
# [33] = molecular target: T3, Bile acid receptor (Mus musculus); experiment: In vivo activation of FXR in CDAHFD-induced nonalcoholic steatohepatitis C57BL/6J mouse model assessed as induction of FGF15 gene expression at 80 mg/kg, po administered daily for 4 weeks; format: functional, organism-based
# [34] = molecular target: T3, Bile acid receptor (Mus musculus); experiment: In vivo activation of FXR in […]-induced nonalcoholic steatohepatitis C57BL/6J mouse model assessed as improved glucose tolerance measured up to 120 mins by glucose tolerance test; format: functional
# [35] = Toxicity in CDAHFD-induced nonalcoholic steatohepatitis C57BL/6J mouse model assessed as change in body weight at 80 mg/kg, po administered daily for 4 weeks; format: organism-based; conditions: in vivo, 672 h
# [36] = molecular target: T3, Bile acid receptor (Mus musculus); experiment: In vivo activation of FXR in CDAHFD-induced nonalcoholic steatohepatitis C57BL/6J mouse model assessed as induction of OST-alpha gene expression at 80 mg/kg, po administered daily for 4 weeks; format: functional, organism-based
# [37] = molecular target: T3, Bile acid receptor (Mus musculus); experiment: In vivo activation of FXR in CDAHFD-induced nonalcoholic steatohepatitis C57BL/6J mouse model assessed as induction of SHP gene expression in liver at 80 mg/kg, po administered daily for 4 weeks; format: functional, organism-based
smiles,measurement,setting,value
COC(=O)/C=C/c1cccc(N(Cc2ccc3c(c2)CCc2cc(N(C)C)ccc2-3)C(=O)C2CCCCC2)c1,pEC50,[1],< 5.00
COC(=O)/C=C/c1cccc(N(Cc2ccc(-c3ccc(N(C)C)cc3)c(C#N)c2)C(=O)C2CCCCC2)c1,Emax,[2],0%
same,Emax,[3],-1%
same,Emax,[4],0%
same,Emax,[5],-2%
same,Emax,[6],-4%
same,Emax,[7],0%
same,Emax,[8],-1%
same,Emax,[9],-3%
same,Emax,[10],1%
same,Emax,[11],-3%
same,Emax,[12],-2%
same,Emax,[13],0%
same,Emax,[14],1%
same,Emax,[15],0%
same,Emax,[16],-11%
same,Emax,[17],2%
same,Emax,[18],3%
CN(C)c1ccc(-c2ccc(CN(C(=O)C3CCCCC3)c3cccc(/C=C/C(=O)OCF)c3)cc2C#N)cc1,pEC50,[1],5.59
COc1cccc(Cn2cc(C(=O)Nc3ccc(C)c(S(=O)(=O)N4CCOCC4)c3)c(-c3ccc(C)cc3)n2)c1,Activity,[19]; filed as antagonist,96%
CC(C)OC(=O)/C=C/c1cccc(N(Cc2ccc(-c3ccc(N(C)C)cc3)c(C#N)c2)C(=O)C2CCCCC2)c1F,pEC50,[1],6.05
CN(C)c1ccc(-c2ccc(CN(C(=O)C3CCCCC3)c3cc(F)cc(/C=C/C(=O)O)c3)cc2C#N)cc1,AUC(0-t) at 24 h,[20],1200 ng·h/mL
same,Activity,[21],6%
same,Activity,[22],0%
same,Activity,[19],26%
same,Stability,[23],Unstable
same,half-life,[24],14.4 min
same,Activity,[25],7%
same,clearance,[26],70 mL/min/kg
same,Vd,[27],1.4 L/kg
COC(=O)/C=C/c1cccc(N(Cc2ccc3c(ccc4cc(N(C)C)ccc43)c2)C(=O)C2CCCCC2)c1,pEC50,[1],< 5.00
COC(=O)/C=C/c1cccc(N(Cc2ccc(-c3ccc(N(C)C)cc3)cc2)C(=O)C2CCCCC2)c1 [FEXARAMINE],Activity,[28],Non-Toxic
same,Activity,[29],Active
same,Activity,[30],Non-Toxic
same,Activity,[31],Active
same,Activity,[32],Active
same,Activity,[33],Active
same,Activity,[34],Active
same,Activity,[35],Non-Toxic
same,Activity,[36],Active
same,Activity,[37],Active
